Assay [1] concerns the target Trypanothione reductase (Leishmania amazonensis) (UniProt A5JV95). Description: Inhibition of trypanothione reductase in Leishmania amazonensis MHOM/BR/LTB0016 extracts assessed as NADPH consumption using trypanothione disulfide as substrate at 1 uM after 5 sec by spectrophotometer.
The target of assay [2] is Trypanothione reductase (Leishmania infantum) (UniProt A4HSF7). Description: Inhibition of recombinant Leishmania infantum MHOM/MA67ITMAP263 trypanothione reductase assessed as inhibition of NADPH consumption using trypanothione disulfide as substrate at 1 uM after 60 secs by spectrophotometer.
Trypanothione reductase (Leishmania infantum), sequence (A4HSF7 as listed by the source): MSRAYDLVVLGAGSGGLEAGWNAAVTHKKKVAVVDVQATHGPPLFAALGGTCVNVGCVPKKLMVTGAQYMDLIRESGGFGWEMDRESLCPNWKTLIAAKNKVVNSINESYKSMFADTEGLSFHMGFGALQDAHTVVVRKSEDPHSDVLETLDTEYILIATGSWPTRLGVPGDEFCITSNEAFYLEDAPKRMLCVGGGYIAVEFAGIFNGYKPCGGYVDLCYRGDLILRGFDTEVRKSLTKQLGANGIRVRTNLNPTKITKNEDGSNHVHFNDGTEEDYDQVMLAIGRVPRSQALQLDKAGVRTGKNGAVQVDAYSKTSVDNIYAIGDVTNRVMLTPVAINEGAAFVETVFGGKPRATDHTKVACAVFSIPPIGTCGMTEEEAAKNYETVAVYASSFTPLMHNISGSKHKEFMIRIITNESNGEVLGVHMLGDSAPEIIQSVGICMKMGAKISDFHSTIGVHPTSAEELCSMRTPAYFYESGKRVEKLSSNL
Assay [3] has as its target Trypanothione reductase (Trypanosoma cruzi) (UniProt P28593). Description: Inhibition of recombinant Trypanosoma cruzi Y trypanothione reductase assessed as inhibition of NADPH consumption using trypanothione disulfide as substrate at 1 uM after 60 secs by spectrophotometer.
Assay [4] concerns the target Trypanothione reductase (Leishmania infantum) (UniProt A4HSF7). Description: Inhibition of trypanothione reductase in promastigotes of Leishmania infantum MHOM/MA67ITMAP263 extracts assessed as NADPH consumption using trypanothione disulfide as substrate at 1 uM after 5 sec by spectrophotometer.
The target in assay [5] is Trypanothione reductase (Trypanosoma cruzi) (UniProt P28593). Description: Inhibition of trypanothione reductase epimastigotes of Trypanosoma cruzi Y extracts assessed as NADPH consumption using trypanothione disulfide as substrate at 1 uM after 5 sec by spectrophotometer.
Trypanothione reductase (Trypanosoma cruzi), sequence (P28593 whole entry, looked up): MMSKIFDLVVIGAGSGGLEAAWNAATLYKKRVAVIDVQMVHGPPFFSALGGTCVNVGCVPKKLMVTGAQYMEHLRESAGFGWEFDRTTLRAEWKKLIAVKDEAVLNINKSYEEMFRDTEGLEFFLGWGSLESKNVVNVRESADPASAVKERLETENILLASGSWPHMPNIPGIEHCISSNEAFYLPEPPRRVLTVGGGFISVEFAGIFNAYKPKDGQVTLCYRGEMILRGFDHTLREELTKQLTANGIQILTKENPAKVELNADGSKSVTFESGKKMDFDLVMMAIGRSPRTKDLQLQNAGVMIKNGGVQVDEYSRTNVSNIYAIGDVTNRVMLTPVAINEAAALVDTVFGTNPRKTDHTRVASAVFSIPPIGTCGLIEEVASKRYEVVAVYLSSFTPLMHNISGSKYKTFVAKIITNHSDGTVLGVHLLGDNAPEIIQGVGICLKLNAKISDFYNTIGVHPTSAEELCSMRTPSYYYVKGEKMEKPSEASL
Assay [6] deals with Leishmania braziliensis. Description: Inhibition of trypanothione reductase in promastigotes of Leishmania braziliensis MCAN/BR/98/R619 extracts assessed as NADPH consumption using trypanothione disulfide as substrate at 1 uM after 5 sec by spectrophotometer.

Inhibition data for 4 molecules are collected here from ChEMBL document CHEMBL1944629, “Investigation of trypanothione reductase inhibitory activity by 1,3,4-thiadiazolium-2-aminide derivatives and molecular docking studies” (Bioorg Med Chem, 2012).

Calls of active or inactive are those of the source. No cut-off for these calls is given here.

A word on the inhibition: it is the drop in the measured response relative to a control, in per cent.

Trypanothione reductase (Leishmania amazonensis), sequence (A5JV95 as listed by the source): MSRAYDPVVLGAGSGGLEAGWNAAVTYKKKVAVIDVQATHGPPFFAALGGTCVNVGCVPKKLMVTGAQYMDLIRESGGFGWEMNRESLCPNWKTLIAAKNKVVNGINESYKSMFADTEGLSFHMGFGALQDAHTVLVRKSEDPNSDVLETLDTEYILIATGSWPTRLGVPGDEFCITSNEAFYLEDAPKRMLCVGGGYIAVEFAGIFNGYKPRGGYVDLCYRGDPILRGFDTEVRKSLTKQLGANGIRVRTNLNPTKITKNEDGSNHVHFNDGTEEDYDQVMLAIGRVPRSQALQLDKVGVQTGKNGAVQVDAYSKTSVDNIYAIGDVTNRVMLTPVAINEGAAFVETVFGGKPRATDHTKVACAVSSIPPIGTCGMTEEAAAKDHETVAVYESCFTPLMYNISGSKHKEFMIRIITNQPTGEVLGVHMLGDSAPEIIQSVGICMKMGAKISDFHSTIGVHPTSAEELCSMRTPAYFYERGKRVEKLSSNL

For the molecule `COc1ccc(/C=C/c2sc(Nc3ccccc3)n[n+]2-c2ccccc2)cc1`, in assay [1], the inhibition entry was “inactive”.
Consider `C(=C\c1sc(Nc2ccccc2)n[n+]1-c1ccccc1)/c1ccccc1`, for which the inhibition entry in assay [1], in assay [2] and in assay [3] was “inactive” in each case.
In the case of `COc1cccc(/C=C/c2sc(Nc3ccccc3)n[n+]2-c2ccccc2)c1`, the inhibition result in assay [1] is “inactive”.
In the case of `O=[N+]([O-])c1ccc(/C=C/c2sc(Nc3ccccc3)n[n+]2-c2ccccc2)cc1`, the inhibition worked out at 70% in assay [4]; 76% in assay [1]; 76% in assay [2]; 69% in assay [3]; 83% in assay [5]; 69.5% in assay [6].
